Source: ChEMBL document CHEMBL3045068, “Effect of methomyl and oxamyl soil applications on early control of nematodes and insects” (Pest Manag Sci, 2011)
In brackets after ≈: the same amount, converted by molar mass.

Columns and labels:
[1] = tested on: Meloidogyne incognita; assay: Nematicidal activity against second juvenile stage of Meloidogyne incognita (root-knot nematode) infected lima bean plant assessed as emergence at 2 kg ai/ha applied to soil measured up to 7 days post planting under green house conditions (reference value: 83 +/- 5%); format: functional
[2] = tested on: Pisum sativum; assay: Phytotoxicity in Pisum sativum (pea) assessed as root dry weight at 4 kg ai/ha applied to soil measured up to 7 days post planting at 19 degC (reference value: 2 +/- 0.21 g); format: organism-based; conditions: lathyrus oleraceus, in vivo, other, 168 h
[3] = tested on: Spodoptera exigua; assay: Insecticidal activity against Spodoptera exigua infested tomato assessed as mortality applied to soil after 72 hr; format: functional
[4] = tested on: Trichoplusia ni; assay: Insecticidal activity against Trichoplusia ni (cabbage looper) infested cabbage assessed as mortality applied to soil after 72 hr; format: functional
[5] = tested on: Meloidogyne incognita; assay: Nematicidal activity against second juvenile stage of Meloidogyne incognita (root-knot nematode) infected lima bean plant assessed as reduction in root gall index at 1 kg ai/ha applied to soil measured during planting under green house conditions (reference value: 7 +/- 0.27%); format: functional
[6] = tested on: Meloidogyne incognita; assay: Nematicidal activity against second juvenile stage of Meloidogyne incognita (root-knot nematode) infected pea plant assessed as root dry weight at 4 kg ai/ha applied to soil measured up to 14 days post planting under green house conditions (reference value: 0.25 +/- 0.041 g); format: functional
[7] = tested on: Meloidogyne incognita; assay: Nematicidal activity against second juvenile stage of Meloidogyne incognita (root-knot nematode) infected pea plant assessed as plant fresh weight at 3 kg ai/ha applied to soil measured up to 14 days post planting under green house conditions (reference value: 4.3 +/- 0.56 g); format: functional
[8] = tested on: Pisum sativum; assay: Phytotoxicity in Pisum sativum (pea) assessed as plant height at 4 kg ai/ha applied to soil measured up to 7 days post planting at 27 degC under green house conditions (reference value: 9.6 +/- 1.5 cm); format: organism-based; conditions: lathyrus oleraceus, in vivo, other, 168 h
[9] = tested on: Pisum sativum; assay: Phytotoxicity in Pisum sativum (pea) assessed as plant fresh weight at 3 kg ai/ha applied to soil measured up to 7 days post planting at 27 degC under green house conditions (reference value: 3.9 +/- 0.83 g); format: organism-based; conditions: lathyrus oleraceus, in vivo, other, 168 h
[10] = tested on: Phaseolus lunatus; assay: Phytotoxicity in Phaseolus lunatus (lima bean) root assessed as root dry weight at 1.56 kg ai/ha applied to soil measured up to 7 days under green house conditions (reference value: 0.36 +/- 0.071 g); format: organism-based; conditions: in vivo, other, 168 h
[11] = tested on: Phaseolus lunatus; assay: Phytotoxicity in Phaseolus lunatus (lima bean) plant assessed as plant dry weight at 2.12 kg ai/ha applied to soil measured up to 7 days under green house conditions (reference value: 1.20 +/- 0.21 g); format: organism-based; conditions: in vivo, other, 168 h
[12] = tested on: Pisum sativum; assay: Phytotoxicity in Pisum sativum (pea) assessed as root dry weight at 3 kg ai/ha applied to soil measured up to 7 days post planting at 19 degC (reference value: 2 +/- 0.21 g); format: organism-based; conditions: lathyrus oleraceus, in vivo, other, 168 h
[13] = tested on: Pisum sativum; assay: Phytotoxicity in Pisum sativum (pea) assessed as plant fresh weight at 4 kg ai/ha applied to soil measured up to 7 days post planting at 19 degC (reference value: 9.4 +/- 0.54 g); format: organism-based; conditions: lathyrus oleraceus, in vivo, other, 168 h
[14] = tested on: Meloidogyne incognita; assay: Nematicidal activity against second juvenile stage of Meloidogyne incognita (root-knot nematode) assessed as mortality at 20 mg ai/L after 48 to 72 hr relative to control; format: functional
[15] = tested on: Pisum sativum; assay: Phytotoxicity in Pisum sativum (pea) assessed as plant height at 4 kg ai/ha applied to soil measured up to 7 days post planting at 19 degC (reference value: 6.2 +/- 0.6 cm); format: organism-based; conditions: lathyrus oleraceus, in vivo, other, 168 h
[16] = tested on: Pisum sativum; assay: Phytotoxicity in Pisum sativum (pea) assessed as plant height at 2 kg ai/ha applied to soil measured up to 7 days post planting at 27 degC under green house conditions (reference value: 9.6 +/- 1.5 cm); format: organism-based; conditions: lathyrus oleraceus, in vivo, other, 168 h
[17] = tested on: Meloidogyne incognita; assay: Nematicidal activity against second juvenile stage of Meloidogyne incognita (root-knot nematode) infected pea plant assessed as emergence at 3 kg ai/ha applied to soil measured up to 14 days post planting under green house conditions (reference value: 75 +/- 13%); format: functional
[18] = tested on: Meloidogyne incognita; assay: Nematicidal activity against second juvenile stage of Meloidogyne incognita (root-knot nematode) infected pea plant assessed as reduction in root gall index at 4 kg ai/ha applied to soil measured up to 7 days post planting under green house conditions (reference value: 9.7 +/- 0.30%); format: functional
[19] = tested on: Bemisia tabaci; assay: Insecticidal activity against second-instar […] stage of Bemisia tabaci (sweet potato whitefly) infested cotton assessed as mortality applied to soil after 6 days; format: functional
[20] = tested on: Meloidogyne incognita; assay: Nematicidal activity against second juvenile stage of Meloidogyne incognita (root-knot nematode) infected lima bean plant assessed as root dry weight at 4 kg ai/ha applied to soil measured up to 14 days post planting under green house conditions (reference value: 0.5 +/- 0.052 g); format: functional
[21] = tested on: Bemisia tabaci; assay: Insecticidal activity against second-instar […] stage of Bemisia tabaci (sweet potato whitefly) infested cotton assessed as mortality applied through foliar spray after 6 days; format: functional
[22] = tested on: Meloidogyne incognita; assay: Nematicidal activity against second juvenile stage of Meloidogyne incognita (root-knot nematode) infected lima bean plant assessed as reduction in root gall index at 3 kg ai/ha applied to soil measured up to 7 days post planting under green house conditions (reference value: 7 +/- 0.27%); format: functional

Work on `CNC(=O)ON=C(C)SC` [METHOMYL] yielded an Activity [1] of 100%, an Activity [2] of 1.7 g and an LC90 [3] of 30 µg/mL (≈ 185 µM). The LC50 ([3]; Spodoptera exigua, soil, 72 h) was 18 µg/mL (≈ 111 µM), the LC90 [4] was 547 µg/mL (≈ 3370 µM) and the LC50 ([4]; Trichoplusia ni, soil, 72 h) was 100 µg/mL (≈ 616 µM). The Root_galling_index [5] was 0%, the Activity [6] was 0.31 g and the Activity [7] was 5.2 g. The Activity [8] was 9.1 cm, the Activity [9] was 3.3 g and the Activity [10] was 0.26 g. For the same molecule, the Activity [11] was 0.66 g, the Activity [12] was 2.2 g and the Activity [13] was 8.5 g. It also gave a mortality at 20 µg/mL [14] of 95%, an Activity [15] of 6.3 cm and an Activity [16] of 7.1 cm. It also gave an Activity [17] of 63%, a Root_galling_index [18] of 0% and an LC90 [19] of 1119 µg/mL (≈ 6900 µM). For the same molecule, the LC50 ([19]; Bemisia tabaci, soil, 144 h) was 673 µg/mL (≈ 4150 µM), the Activity [20] was 0.27 g and the LC90 [21] was 1589 µg/mL (≈ 9800 µM). For the same molecule, the LC50 ([21]; Bemisia tabaci, foliar, 144 h) was 203 µg/mL (≈ 1250 µM) and the Root_galling_index [22] was 0%.
